Structures can show the parent of a compound that is named as a salt.
| Compound | melting point [°C] |
| --- | --- |
| Clc1ccc(Nc2nc3ccccc3[nH]2)cc1 (as salt: hydrochloride) [Example 1, N-(Benzimidazol-2-yl)-4-chloroaniline] | 238 to 240 |
| Clc1ccc(Nc2nc3ccccc3[nH]2)cc1Cl (as salt: hydrochloride) [Example 3, N-(Benzimidazol-2-yl)-3,4-dichloroaniline] | > 270 |
| Clc1cccc(Nc2nc3ccccc3[nH]2)c1 (as salt: hydrochloride) [Example 5, N-(Benzimidazol-2-yl)-3-chloroaniline] | 252 to 257 |
| Fc1ccc(Nc2nc3ccccc3[nH]2)cc1 (as salt: hydrochloride) [Example 7, N-(Benzimidazol-2-yl)-4-fluoroaniline] | 215 to 216 |
| Fc1cc(F)cc(Nc2nc3ccccc3[nH]2)c1 (as salt: hydrochloride) [Example 9, N-(Benzimidazol-2-yl)-3,5-difluoroaniline] | 292 to 293 |
| FC(F)(F)c1cc(Nc2nc3ccccc3[nH]2)cc(C(F)(F)F)c1 (as salt: hydrochloride) [Example 13, N-(Benzimidazol-2-yl)-3,5-bis(trifluoromethyl)aniline] | 245 to 246 |
| Clc1cc(Cl)cc(Nc2nc3ccccc3[nH]2)c1 (as salt: hydrochloride) [Example 15, N-(Benzimidazol-2-yl)-3,5-dichloroaniline] | 317 to 318 |
| CN(c1ccc(Cl)c(Cl)c1)c1nc2ccccc2[nH]1 (as salt: hydrochloride) [Example 22, N-(Benzoimidazol-2-yl)-N-methyl-3,4-dichloroaniline] | > 275 |
| Fc1ccc(Nc2nc3ccccc3[nH]2)c(F)c1F [Example 21, N-(Benzimidazol-2-yl)-2,3,4-trifluoroaniline] | 182 to 183 |
| N#Cc1cccc(Nc2nc3ccccc3[nH]2)c1 [Example 23, N-(Benzoimidazol-2-yl)-3-cyanoaniline] | 272 to 274 |
| CC(C)c1ccc(Nc2nc3ccccc3[nH]2)cc1 [Example 25, N-(Benzoimidazol-2-yl)-4-isopropylaniline] | 179 to 180 |
| c1ccc(-c2ccccc2Nc2nc3ccccc3[nH]2)cc1 [Example 28, N-(Benzoimidazol-2-yl)-2-phenylaniline] | 152 to 154 |

More lines, now with the values ahead:

| melting point [°C] | Compound |
| --- | --- |
| 255 to 260 | FC(F)(F)c1cc(Nc2nc3ccccc3[nH]2)ccc1Cl (as salt: hydrochloride) [Example 2, N-(Benzimidazol-2-yl)-4-chloro-3-(trifluoromethyl)aniline] |
| 250 to 251 | FC(F)(F)Oc1ccc(Nc2nc3ccccc3[nH]2)cc1 (as salt: hydrochloride) [Example 6, N-(Benzimidazol-2-yl)-4-(trifluoromethoxy)aniline] |
| 283 to 284 | Fc1ccc(Nc2nc3ccccc3[nH]2)cc1F (as salt: hydrochloride) [Example 8, N-(Benzimidazol-2-yl)-3,4-difluoroaniline] |
| 255 to 257 | Fc1ccc(Nc2nc3ccccc3[nH]2)cc1C(F)(F)F (as salt: hydrochloride) [Example 11, N-(Benzimidazol-2-yl)-4-fluoro-3-(trifluoromethyl)aniline] |
| 246 to 248 | Cc1cc(Nc2nc3ccccc3[nH]2)ccc1F (as salt: hydrochloride) [Example 12, N-(Benzimidazol-2-yl)-4-fluoro-3-methylaniline] |
| 306 to 307 | Fc1ccc(Nc2nc3ccccc3[nH]2)cc1Cl (as salt: hydrochloride) [Example 14, N-(Benzimidazol-2-yl)-3-chloro-4-fluoroaniline] |
| 262 to 264 | FC(F)(F)c1cc(Nc2nc3ccccc3[nH]2)ccc1Br (as salt: hydrochloride) [Example 16, N-(Benzimidazol-2-yl)-4-bromo-3-(trifluoromethyl)aniline] |
| > 265 | Cc1ccc(Nc2nc3ccccc3[nH]2)cc1C(F)(F)F (as salt: hydrochloride) [Example 17, N-(Benzimidazol-2-yl)-4-methyl-3-(trifluoromethyl)aniline] |
| 263 to 265 | Fc1cc(Nc2nc3ccccc3[nH]2)cc(C(F)(F)F)c1 (as salt: hydrochloride) [Example 18, N-(Benzimidazol-2-yl)-3-fluoro-5-(trifluoromethyl)aniline] |
| 212 to 213 | COc1cc(Nc2nc3ccccc3[nH]2)cc(C(F)(F)F)c1 (as salt: hydrochloride) [Example 24, N-(Benzoimidazol-2-yl)-3-methoxy-5-(trifluoromethyl)aniline] |
| 199 to 200 | FC(F)(F)c1ccc(Nc2nc3ccccc3[nH]2)cc1 [Example 4, N-(Benzimidazol-2-yl)-4-(trifluoromethyl)aniline] |
| 160 to 162 | FC(F)(F)c1cccc(Nc2nc3ccccc3[nH]2)c1 [Example 10, N-(Benzimidazol-2-yl)-3-(trifluoromethyl)aniline] |
| 204 to 206 | Cc1c(Nc2nc3ccccc3[nH]2)cccc1C(F)(F)F [Example 19, N-(Benzimidazol-2-yl)-2-methyl-3-(trifluoromethyl)aniline] |
| 91 to 92 | Fc1c(Nc2nc3ccccc3[nH]2)cccc1C(F)(F)F [Example 20, N-(Benzimidazol-2-yl)-2-fluoro-3-(trifluoromethyl)aniline] |

Reference: patent publication US7960561B2, “2-(phenylamino) benzimidazole derivatives and their use as modulators of small-conductance calcium-activated potassium channels” (Neurosearch A/S, priority 2005, dated 2011)
